Measured values published in the supplement of paper PMC10307832.

How the values were obtained:
Assay in all cases: relative viability (nuclei count vs DMSO), 5 days (fraction); higher = more cells survive
Zosuquidar + Foretinib = compound: O[C@@H](COc1cccc2ncccc12)CN1CCN([C@@H]2c3ccccc3[C@@H]3[C@H](c4ccccc42)C3(F)F)CC1 [Zosuquidar] + COc1cc2c(Oc3ccc(NC(=O)C4(C(=O)Nc5ccc(F)cc5)CC4)cc3F)ccnc2cc1OCCCN1CCOCC1 [Foretinib] (partner 0.25 µM)
Procedure, shortened: (§1)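 Dosing by pin tool came one day after lung cancer cell lines were seeded in 1536-well plates, using either one drug or a fixed anchor-drug dose plus five library-drug doses (not always all listed) in √10 steps. After 5 days, nuclei were counted on 4× images. Relative viability is treated-well nuclei count divided by vehicle-well nuclei count, and values are medians of duplicate plates.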

Zosuquidar + Alpelisib = compound: O[C@@H](COc1cccc2ncccc12)CN1CCN([C@@H]2c3ccccc3[C@@H]3[C@H](c4ccccc42)C3(F)F)CC1 [Zosuquidar] + Cc1nc(NC(=O)N2CCC[C@H]2C(N)=O)sc1-c1ccnc(C(C)(C)C(F)(F)F)c1 [Alpelisib] (partner 2 µM)
Procedure, shortened: as §1

Kobe2602 + Linsitinib = compound: C1=CC(=CC=C1NC(=S)NNC2=C(C=C(C=C2[N+](=O)[O-])C(F)(F)F)[N+](=O)[O-])F [Kobe2602] + C[C@]1(O)C[C@@H](c2nc(-c3ccc4ccc(-c5ccccc5)nc4c3)c3c(N)nccn32)C1 [Linsitinib] (partner 1 µM)
Procedure, shortened: as §1

[1] = compound: COc1cc2nccc(Oc3ccc(NC(=O)C4(C(=O)Nc5ccc(F)cc5)CC4)cc3)c2cc1OC [Cabozantinib] + CC1(C)CCC(c2ccc(Cl)cc2)=C(CN2CCN(c3ccc(C(=O)NS(=O)(=O)c4ccc(N[C@H](CCN5CCOCC5)CSc5ccccc5)c(S(=O)(=O)C(F)(F)F)c4)cc3)CC2)C1 [Navitoclax] (partner 0.5 µM)
Procedure, shortened: as §1

Cell Line	relative viability (Zosuquidar + Foretinib; first compound 0.01 µM)	relative viability (Zosuquidar + Foretinib; first compound 0.03162 µM)	relative viability (Zosuquidar + Foretinib; first compound 0.1 µM)	relative viability (Zosuquidar + Foretinib; first compound 0.3162 µM)	relative viability (Zosuquidar + Foretinib; first compound 1 µM)	relative viability (Zosuquidar + Alpelisib; first compound 0.01 µM)	relative viability (Zosuquidar + Alpelisib; first compound 0.03162 µM)	relative viability (Zosuquidar + Alpelisib; first compound 0.1 µM)	relative viability (Zosuquidar + Alpelisib; first compound 0.3162 µM)	relative viability (Zosuquidar + Alpelisib; first compound 1 µM)	relative viability (Kobe2602 + Linsitinib; first compound 0.2 µM)	relative viability (Kobe2602 + Linsitinib; first compound 0.6325 µM)	relative viability (Kobe2602 + Linsitinib; first compound 2 µM)	relative viability (Kobe2602 + Linsitinib; first compound 6.325 µM)	relative viability (Kobe2602 + Linsitinib; first compound 20 µM)	relative viability ([1]; first compound 0.02 µM)	relative viability ([1]; first compound 0.06325 µM)	relative viability ([1]; first compound 0.6325 µM)	relative viability ([1]; first compound 2 µM)	relative viability ([1]; first compound 0.2 µM)
SW 900	0.761	0.86	0.819	0.952	0.854															
NCI-H358	0.654	0.615	0.719	0.598	0.702	0.914	0.833	0.832	0.839	0.893	0.684	0.77	0.771	0.758	0.732					
PC-3 [JPC-3]	1.11	1.02	0.984	1.09	1.1	0.986	1	0.91	1.03	0.994	0.952	0.872	0.965	0.976	0.956	0.829	0.929	0.784	0.868	
NCI-H1651	0.763	0.845	0.703	0.863	0.778	1.05	1.02	0.856	0.915	0.975	0.83	1.14	1.07	0.976	0.906	1.19	1.03	0.974	0.928	1.15
HCC-827	1.05	1.03	0.9	1.01	1.02	0.935	1.01	0.759	1.07	0.96	0.902	0.936	0.925	0.955	0.922	1.05	1.07	1.05	0.981	
HCC-366	0.922	0.856	0.999	0.96	0.869	0.519	0.449	0.337	0.438	0.401	0.711	0.743	0.629	0.664	0.647	1.15	1.11	1.03	1.06	1.16
HARA	0.857		0.883	0.866	0.999	0.784	0.822	0.765	0.825	0.761	0.959	1.02	0.948	0.839	0.847	1.17	1.16	1.19	1.17	1.12
NCI-H520	0.882	0.849		0.619	0.685	0.941	0.784	0.778	0.981	0.837	0.997	1.04	1.02	0.984	0.968	0.902	1.16	1.02	0.998	1.21
NCI-H1299	1.09	1.08	1.15	1.14	1.06	1.07	0.998	1.05	0.995	1.05	0.887	0.979	0.961	1.03	0.945	1.03	1.04	1.06	1.09	1.08
SW 1573	0.976	0.888	1.07	1.05	0.879	0.721	0.739	0.651	0.89	0.8	0.846	0.767	0.811	0.769	0.864	1.04	1.17	1	0.81	0.887
CAL-12T	1.12	1.18	0.978	1.18	1.02	1.17	1.13	1.16	1.41	1.13	0.707	0.821	0.705	0.916	0.709	1.51	1.2	1.17	1.46	1.37
COR-L 105	0.865	0.888	1.29	1.04	0.899	1.07	0.852	1.11	1.07	1.12	0.711	0.985	0.574	0.944	0.988	0.789	0.771	0.657	0.743	
NCI-H3122	0.891	0.922	0.909	0.934	0.955	0.714	0.769	0.679	0.764	0.763	1.01	1.05	1.01	1.06	1.11	0.988	1.03	1.03	1.02	0.987
NCI-H2228	0.933	0.438	0.995	0.768	0.714	0.562	0.716	0.881	0.679	0.859	0.576	0.733	0.809	0.756	0.598	0.784	0.689	0.824	0.805	0.725
RERF-LC-KJ	0.895	0.926	0.861	0.923	0.844	0.809	0.913	0.745	0.887	0.874	0.826	0.868	0.814	0.829	0.824	1.06	1.08	0.866	0.921	0.948
NCI-H441	1.06	1.01	0.866	1.03	1.2	0.998	0.766	0.732		0.591	0.612	0.746	0.48	0.557	0.623		0.508	0.578	0.662	0.393
A549	0.879	0.84	0.906	0.983	0.956	0.688	0.745	0.678	1.03	0.877	0.562	0.687	0.583	0.524	0.578	1.26	1.24	1.27	1.08	1.21
NCI-H2342	1.1	1.18	0.878	1	1.06															
NCI-H1623	0.868	0.832	0.821	0.933	0.803															

Cell Line	relative viability (Zosuquidar + Foretinib; first compound 0.01 µM)	relative viability (Zosuquidar + Foretinib; first compound 0.03162 µM)	relative viability (Zosuquidar + Foretinib; first compound 0.1 µM)	relative viability (Zosuquidar + Foretinib; first compound 0.3162 µM)	relative viability (Zosuquidar + Foretinib; first compound 1 µM)	relative viability (Zosuquidar + Alpelisib; first compound 0.01 µM)	relative viability (Zosuquidar + Alpelisib; first compound 0.03162 µM)	relative viability (Zosuquidar + Alpelisib; first compound 0.1 µM)	relative viability (Zosuquidar + Alpelisib; first compound 0.3162 µM)	relative viability (Zosuquidar + Alpelisib; first compound 1 µM)	relative viability (Kobe2602 + Linsitinib; first compound 0.2 µM)	relative viability (Kobe2602 + Linsitinib; first compound 0.6325 µM)	relative viability (Kobe2602 + Linsitinib; first compound 2 µM)	relative viability (Kobe2602 + Linsitinib; first compound 6.325 µM)	relative viability (Kobe2602 + Linsitinib; first compound 20 µM)	relative viability ([1]; first compound 0.02 µM)	relative viability ([1]; first compound 0.06325 µM)	relative viability ([1]; first compound 0.6325 µM)	relative viability ([1]; first compound 2 µM)	relative viability ([1]; first compound 0.2 µM)
LCLC-97TM1	0.922	0.929	0.9	1.01	0.974	0.187	0.237		0.224	0.234	0.221	0.179	0.159	0.196	0.202		0.5	0.484	0.589	0.618
NCI-H2087	1		0.992	1.21	1.12	1	1.28	1.2	1.19	1.15	1.11	0.864	0.882	0.939	0.94	1.03	1.1	0.985	0.981	1.06
NCI-H647	1.21	1.13	1.32	1.27	1.02	1.25	1.12	1.28	1.11	1.39	1.12	1.45	1.25	0.864	1.19	0.994	1.15	1.11	0.886	1.06
Calu-6	0.842	0.916	1.03	0.942	0.902	0.938	0.972	1.01	1.12	0.879	0.911	0.975	0.897	0.954	0.895	0.76	0.912	0.739	0.773	0.801
LCLC-103H	0.694	0.678	0.698	0.844	0.809	1.02	1.12	1.01	1.02	0.926	1.05	1.1	1.1	1.09	0.984					
HCC-15	1.08	1.08	0.864	1.04	1.09	0.922	0.88	0.869	0.932	0.869	0.881	0.919	0.872	0.832	0.899	0.743	0.739	0.67	0.645	0.77
H3255	0.957	0.607	0.621	0.938	0.738	0.712	0.769	0.492	0.797	0.689	0.875	1.09	0.941	0.838	0.87	0.491	0.676	0.687	0.553	
NCI-H1915	0.951	1.11	1.07	1.12	1.13	1.04	1.1	0.989	1.06	1.08	1.08	1.12	1.08	1.08	1.1	0.778	0.823	0.732	0.769	0.801
NCI-H1650	1.12	1.04	1.21	1.15	1.49											1.19	1.5	1.23	1.06	1.07
NCI-H661	1.05	0.895	0.885	1.06	0.988	0.48	0.621	0.408	0.614	0.703	0.53	0.559	0.629	0.539	0.581					
NCI-H2126	1.17	1.09		1.18	1.23	0.755	0.741	0.554	0.837	0.797	0.718	0.659	0.7	0.704	0.765	0.828	0.84	0.831	0.896	0.869
HCC-44						0.753	0.817	0.842	0.885	0.755	0.739	0.668	0.632	0.624	0.766	1.01	1.1	1.07	0.965	1.02
ChaGo-K-1	0.905	0.994	0.873	0.909	0.943											0.823	1.28	0.562	1.04	0.972
NCI-H1792						0.66	0.813	0.53	0.705	0.799	0.563	0.53	0.613	0.521	0.558	0.59	0.967	0.637	0.589	0.555
NCI-H1563	1.04	0.9	0.967	1.1	0.932	0.935	0.988	0.904	0.988	0.921	1.1	1.39	1.08	1.14	1.34					
ABC-1	0.926	1.03	1.17	1.32	0.95	0.949	1.07	1.06	0.994	1.16	0.609	0.984	0.722	0.876	0.735					
NCI-H650	1.03	0.984	0.908	1.15	0.939	1.15	0.94		1.09	1.28	0.758	1.03	0.912	0.897	0.954					
NCI-H2170	0.979	1.02	0.993	1.02	1.02	0.799	0.786	0.774	0.821	0.769						0.579	0.611	0.652	0.62	0.559
